Assay results taken from patent US11738053B2, “Methods and compositions for treating chronic granulomatous disease” (THE BOARD OF REGENTS OF THE UNIVERSITY OF TEXAS SYSTEM, priority 2016, dated 2023).

How the values were obtained:
[1] = without irradiation and chemotherapy; cited from earlier work
[2] = test system: NADPH oxidase in K562 cells; experiment: Superoxide generation (Diogenes luminescence) in K562 cells reconstituted with gp91^phox vectors; format: cell-based; details: K562 cells stably expressing human p47^phox and p67^phox, transfected 48 h before measurement
Experimental: FIG. 15. The gp91^phox (T196F) mutant is superactive compared with wild-type. A cellular luminescence enhancement system for superoxide detection (Diogenes, National Diagnostics) was used. Human p47^phox and p67^phox stably expressing K562 cells were transfected with either wild-type human gp91^phox vector, gp91^phox (T196F) vector, or empty vector pcDNA 3.1 48 h before measurement. K562 cells constitutively express p22^phox and Rac. The experiment shown is representative of 3 studies.
In a structure/function study of gp91^phox, a super-active variant of gp91^phox (T196F) was generated in which residue 196 is mutated from threonine to phenylalanine (FIG. 15). PMA-stimulated superoxide generation was 7-fold greater when gp91^phox(T196F), versus wild-type gp91^phox, was used to reconstitute the NADPH oxidase in K562 cells. The mutant construct was made by Quik-Change™ site-directed mutagenesis of gp91^phox using sense primer […] (SEQ ID NO:1) and antisense primer […] (SEQ ID NO:2). The construct was sequenced and subcloned into fresh pcDNA3.1 (−) using NheI and XhoI.

Row | Molecule | effectiveness as conditioning regimen [1] | PMA-stimulated superoxide generation relative to wild-type gp91^phox [2] [fold]
1 | c1cc(CN2CCCNCCNCCCNCC2)ccc1CN1CCCNCCNCCCNCC1 [AMD3100] | not to be sufficiently effective | –
2 | gp91^phox(T196F): super-active variant of gp91^phox in which residue 196 is mutated from threonine to phenylalanine (protein, UniProt P04839 2-570, looked up, variant T196F) NADPH oxidase 2: GNWAVNEGLSIFVILVWLGLNVFLFVWYYRVYDIPPKFFYTRKLLGSALALARAPAACLNFNCMLILLPVCRNLLSFLRGSSACCSTRVRRQLDRNLTFHKMVAWMIALHSAIHTIAHLFNVEWCVNARVNNSDPYSVALSELGDRQNESYLNFARKRIKNPEGGLYLAVTLLAGITGVVITLCLILIITSSTKFIRRSYFEVFWYTHHLFVIFFIGLAIHGAERIVRGQTAESLAVHNITVCEQKISEWGKIKECPIPQFAGNPPMTWKWIVGPMFLYLCERLVRFWRSQQKVVITKVVTHPFKTIELQMKKKGFKMEVGQYIFVKCPKVSKLEWHPFTLTSAPEEDFFSIHIRIVGDWTEGLFNACGCDKQEFQDAWKLPKIAVDGPFGTASEDVFSYEVVMLVGAGIGVTPFASILKSVWYKYCNNATNLKLKKIYFYWLCRDTHAFEWFADLLQLLESQMQERNNAGFLSYNIYLTGWDESQANHFAVHHDEEKDVITGLKQKTLYGRPNWDNEFKTIASQHPNTRIGVFLCGPEALAETLSKQSISNSESGPRGVHFIFNKENF | – | 7
